The text below walks through data of patent US20240043860A1, “NOVEL HYDROXYPHENYLPYRUVATE DIOXYGENASE POLYPEPTIDES AND METHODS OF USE THEREOF” (Syngenta Crop Protection AG, priority 2020, published 2024).

Experiment [1] deals with HPPD variant AVESA V208 (SEQ ID NO: 14). As to the kind of experiment: biochemical. The class given is biochemical, Avena sativa. As to conditions: SEQ ID NO: 14 compared to control SEQ ID NO: 122. The method, then: (§1) 25 ul of the overnight cultures were inoculated into fresh 96-deepwell block containing 1 ml Formedium Autoinduction Media (AIM). The AIM cultures were grown for 3h at 37° C. (900rpm) and then transferred to 20° C. overnight (900rpm) to allow protein expression. The overnight cultures were centrifuged and 500 ul of Cellytic B (Sigma Aldrich) was added to resuspend the cell pellets. The coupled HGO assay (Siehl et al, 2014) is used to generate IC50 values for the HPPD variants of interest.
(§2) E. coli BL21 (DE3) cells were transformed with a pET24a vector containing a C-terminally his-tagged Arabidopsis HGO gene, grown and induced overnight as described for the HPPD variants above. The cell pellet was resuspended in phosphate buffered saline at pH 7.4 containing 10% Glycerol, 1mm Tris[2-carboxyethyl] phosphine-HCl (TCEP) plus 30 mM Imidazole and lysed using lysozyme/benzonase. The extract was clarified by low speed centrifugation and purified in the same buffer down a 1 ml His Gravitrap column. The bound HGO was eluted in 0.25M imidazole and the fractions pooled and beaded into liquid nitrogen. All procedures apart from the centrifugation and beading steps were carried out under a nitrogen atmosphere.
(§3) The coupled HGO assay is carried out by adding 10 ul of HPPD extract to a 96-well plate and then adding 40 ul of reaction buffer (50 mM Bis Tris Propane, pH7.0, 25 mM sodium-L-ascorbate, 400μM mercaptoethanol, 50 μM Fe(II)SO4). The plates are left to incubate for 5 minutes on ice. […] 200 ul of HPP/HGO (197 μM hydroxyphenylpyruvic acid, 16 μl/ml Homogentisic Acid Oxidase in reaction buffer as described above) buffer is then added to the well and the reaction is regularly monitored (e.g. every 30 seconds-5 minutes) for absorbance at 330 nm for a given time period (e.g., for between 15-60 minutes). The data can then be used to calculate the IC50 value for each HPPD variant of interest.

The subject of experiment [2] is HPPD variant ALOME V200 (SEQ ID NO: 7). Description: coupled HGO assay. The class given is biochemical, Alopecurus myosuroides. The method, then:
(§4) DNA sequences (SEQ ID NOs: 65-118, 128, 130, 131, and 133), synthesized for expression in E. coli, by GeneWiz (USA) to encode HPPD variants (SEQ ID NOs: 5-58, 122, 124, 125 and 127) derived from either Avena sativa (SEQ ID NOs: 122, 124), Alopecurus myosuroides (SEQ ID NO: 126) or Apera spica-venti (SEQ ID NOs: 123, 125) were transformed into E coli BL21 (DE3) (New England Biolabs) and grown in 0.5 ml Terrific broth +50 ug/ml Kanamycin media in a 96-deepwell block overnight (37° C., 900rpm). 25 ul of the overnight cultures were inoculated into fresh 96-deepwell block containing 1 ml Formedium Autoinduction Media (AIM). The AIM cultures were grown for 3h at 37° C. (900rpm) and then transferred to 20° C. overnight (900rpm) to allow protein expression. The overnight cultures were centrifuged and 500 ul of Cellytic B (Sigma Aldrich) was added to resuspend the cell pellets. The coupled HGO assay (Siehl et al, 2014) is used to generate IC50 values for the HPPD variants of interest.
as §2, §3

Experiment [3] relates to HPPD variant ALOME V209 (SEQ ID NO: 19). As to the kind of experiment: coupled HGO assay. The class given is biochemical, Alopecurus myosuroides. The procedure: as §4, §2, §3
The target in experiment [4] is HPPD variant AVESA V209 (SEQ ID NO: 17) (Avena sativa, UniProt A0ACD5V6K6, A327R/I340E/L359M/R214G/V218I/V260A). As to the kind of experiment: biochemical. The class given is biochemical. The procedure: as §1, §2, §3
The test system of experiment [5] is HPPD variant AVESA V209 (SEQ ID NO: 17). As to the kind of experiment: biochemical. The class given is biochemical, Avena sativa. As to conditions: SEQ ID NO: 17 compared to control SEQ ID NO: 122. The method, then:
as §1, §2, §3

For experiment [6], the system named is HPPD variant APESV V200 (SEQ ID NO: 6). As to the kind of experiment: coupled HGO assay. The class given is biochemical, Apera spica-venti. The method, then:
as §4, §2, §3

In experiment [7] the test system is HPPD variant APESV V209 (SEQ ID NO: 18). As to the kind of experiment: coupled HGO assay. The class given is biochemical, Apera spica-venti. The method, then:
as §4, §2, §3

In experiment [8] the test system is HPPD variant APESV V208 (SEQ ID NO: 15). Description: coupled HGO assay. The class given is biochemical, Apera spica-venti. The method, then: as §4, §2, §3

Sequence of HPPD variant AVESA V209 (SEQ ID NO: 17) (Avena sativa, UniProt A0ACD5V6K6, A327R/I340E/L359M/R214G/V218I/V260A) (A0ACD5V6K6 entry or part of it R214G/V218I/V260A/A327R/I340E/L359M): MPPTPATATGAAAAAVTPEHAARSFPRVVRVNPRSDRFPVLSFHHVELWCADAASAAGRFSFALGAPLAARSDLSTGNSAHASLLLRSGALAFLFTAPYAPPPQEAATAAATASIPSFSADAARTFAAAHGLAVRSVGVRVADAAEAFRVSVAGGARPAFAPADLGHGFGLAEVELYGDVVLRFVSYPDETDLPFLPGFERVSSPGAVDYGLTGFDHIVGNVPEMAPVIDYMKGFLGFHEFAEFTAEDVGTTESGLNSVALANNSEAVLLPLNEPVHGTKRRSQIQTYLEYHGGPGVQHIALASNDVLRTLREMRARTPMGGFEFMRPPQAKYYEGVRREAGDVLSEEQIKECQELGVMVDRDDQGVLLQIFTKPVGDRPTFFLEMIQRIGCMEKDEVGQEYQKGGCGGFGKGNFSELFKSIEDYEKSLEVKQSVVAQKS

Turning to `COc1ccc(-n2nc(C)cc(C(=O)C3C(=O)CCCC3=O)c2=O)cc1OC` [Herbicide C, dioxopyritrione], the “increase of the IC50 value” in experiment [1] is on record as > 200 fold.
Turning to `Cn1nnnc1NC(=O)c1ccc(C(F)(F)F)nc1-n1cncn1` [Herbicide D, N-(1-methyltetrazol-5-yl)-2-(1,2,4-triazol-1-yl)-6-(trifluoromethyl)pyridine-3-carboxamide], the IC50 in experiment [2] amounted to 77.8 µM; in experiment [3] it was 96.9 µM; in experiment [4], 106 µM; in experiment [6] it was 85.9 µM; in experiment [7], 95 µM. Moreover, the “increase of the IC50 value” in experiment [5] is given as ~14 fold.
For the compound bicyclopyrone, it took 1 µM to reach half-maximal inhibition in experiment [8] (IC50).
